# Measured values taken from patent US20160207970A1, “POLYPEPTIDE FOR THE PROTECTION AGAINST HEART ISCHEMIA-REPERFUSION INJURY” (Pharis Biotech GmbH, priority 2011, published 2016).
# Entries after “also recorded” stand apart in the source; their conditions may differ. Where two headings read alike, the source gives them in different places. Where no end group is shown, it is not given here.
# Legend:
# in vitro rat heart = conditions: cited from earlier work
# [1] = tested on: isolated, retrogradely perfused rat hearts; assay: Normoxic perfusion of isolated rat hearts (no preceding ischemia); conditions: 0.3 nM between 35 and 50 min of perfusion
# Description: (§1) For anesthesia, a mixture of midazolam (2.5 mg/kg), fluanisone (2.5 mg/kg) and fentanyl citrate (0.08 mg/kg) was administered subcutaneously. Heparin ([…]. per kg) was administered through the femoral vein. The animals were ventilated via a tracheotomy with a mixture of 35% O2/65% N2 and the chest cavity was opened. The excised heart was immediately placed in an ice-cold Krebs Henseleit buffer. The heart was quickly mounted onto the Langendorff perfusion system (ADInstruments, UK) and perfused with modified Krebs-Henseleit solution (NaCl 118.5 mM, KCl 4.7 mM, NaHCO3 25.0 mM, MgSO4 1.2 mM, CaCl2 1.4 mM, glucose 11.1 mM), equilibrated to pH 7.4 with a gas mixture of 5% CO2/95% 02, at 37° C. The left auricle was removed and a size 7 balloon (ADInstruments) was inserted into the left ventricle through the left atrium and adjusted to a diastolic pressure of 4-10 mmHg. Perfusion pressure was set to 70 mm Hg and maintained at this average value by a servo control system (ML175 STH Pump Controller, ADInstruments) continually adjusting the peristaltic pump revolutions according to flow resistance. The hearts were allowed to stabilize for 20 min prior to recording of left ventricle functional parameter baseline values over the next 10 min: pressure (systolic, LVS; diastolic, LVD; developed, LVDEV=LVS-LVD), beats per minute (BPM) and rate-pressure product (RPP). Power Lab 8/30 system and Chart 5 Pro Software from ADInstruments were used for these recordings.
# (§2) Hearts were also excluded if ventricular fibrillation lasting more than 5 min occurred during reperfusion.
# FIG. 1 outlines the time course for normoxic (A) and ischemia-reperfusion (B) experiments. The experimental groups were: control normoxia, no peptide addition; normoxia, N—Ac-GLP-1(7-34)amide 0.3 nM; control ischemia-reperfusion (IR), no peptide addition; IR, N—Ac-GLP-1(7-34)amide 0.3 nM; IR, N—Ac-GLP-1(7-34)amide 0.3 nM+exendin(9-39) 3 nM; IR, exendin(9-39) 3 nM. […] “Stab” indicates 30 min stabilization period. […]
# [2] = tested on: isolated, retrogradely perfused rat hearts; assay: Global ischemia (35 min)-reperfusion (120 min) in isolated, retrogradely perfused (Langendorff) rat hearts; peptide postconditioning; conditions: for LVD AUC / LVD-lowering effect in the presence of exendin(9-39): N-Ac-GLP-1(7-34)amide 0.3 nM + exendin(9-39) 3 nM versus control ischemia; for Infarct size (% IS/AAR): 15 min at onset of reperfusion; for Left ventricle developed pressure (LVDEV) AUC / Rate-pressure product (RPP) AUC / Left ventricle diastolic pressure (LVD) AUC over last 60 min of reperfusion / post-ischemic diastolic contracture: postconditioning 0.3 nM versus control ischemia
# Description: Global ischemia (35 min)-reperfusion (120 min) was applied in isolated, retrogradely perfused rat hearts. Peptides were present for 15 min at the onset of reperfusion. Cardiac function parameters (beats per minute, left ventricle developed and diastolic pressures, rate-pressure product) throughout the course of the perfusion were measured. Infarct size was determined on collected hearts by 2,3,5-tripehyltetrazolium chloride staining and planimetry.
# as §1, §2
# FIG. 1 outlines the time course for normoxic (A) and ischemia-reperfusion (B) experiments. The experimental groups were: control normoxia, no peptide addition; normoxia, N—Ac-GLP-1(7-34)amide 0.3 nM; control ischemia-reperfusion (IR), no peptide addition; IR, N—Ac-GLP-1(7-34)amide 0.3 nM; IR, N—Ac-GLP-1(7-34)amide 0.3 nM+exendin(9-39) 3 nM; IR, exendin(9-39) 3 nM. […] “Stab” indicates 30 min stabilization period. When present, peptides were added for 15 min, from the beginning of the last 120 min of perfusion (A) or reperfusion (B). Total perfusion time was always 185 min, consisting of 30 min stabilization, followed by 155 min of normoxic perfusion (FIG. 1A) or 35 min global ischemia-120 min reperfusion (FIG. 1B).
# Following reperfusion, the hearts were processed for 2, 3, 5-triphenyltetrazolium chloride staining and planimetric infarct size determination, as described earlier. Quantitation was done by an investigator blinded to the experimental conditions. Infarct size (IS) was expressed as a percentage of total ischemic area at risk (AAR) (% IS/AAR).
# All values are presented as means, with SEM given in parantheses. One-way ANOVA with Dunnett's post hoc test (GraphPad Prism® 5) was used to compare treatment results to control conditions. P<0.05 was considered significant.
# [3] = listed as N—Ac-GLP-1(7-34)-amide
# [4] = listed as N—Ac-GLP-1-(7-34)amide
substance,measurement,setting,value
"GLP-1 (HAEGTFTSDVSSYLEGQAAKEFIAWLVKGR; ends and bridges not checked; UniProt P01275 98-127, looked up) [natural hormone GLP-1]",Effect on myocardial infarction,in vitro rat heart; GLP-1 alone,did not decrease
same,Effect on myocardial infarction,in vitro rat heart; GLP-1 in combination with the GLP-1 breakdown inhibitor valine pyrrolidide (VP),significant reduction
"N—Ac-GLP-1(7-34)amide (Ac-HAEGTFTSDVSSYLEGQAAKEFIAWLVK-NH2) [N-terminally acetylated, C-terminally truncated analogue of GLP-1]","Functional heart parameters (BPM, LVDEV, LVD, RPP) under normoxic perfusion",[1],not affected
same,"Functional heart parameters (BPM, LVDEV, LVD, RPP) under normoxic perfusion",[1]; [3],nor did it affect
same,"Functional heart parameters (BPM, LVDEV, LVD, RPP) under normoxic perfusion",[1]; [4],No effect
same,Trend towards LVDEV improvement in the presence of exendin(9-39),[2]; N-Ac-GLP-1(7-34)amide 0.3 nM + exendin(9-39) 3 nM,abolished
same,LVD AUC / LVD-lowering effect in the presence of exendin(9-39),[2],blocked
same,LVD AUC / LVD-lowering effect in the presence of exendin(9-39),[2]; [4],not affected
same,Infarct size (% IS/AAR),"[2]; N-Ac-GLP-1(7-34)amide 0.3 nM in the presence of exendin(9-39) 3 nM, mean",21.4%
same,Infarct size-limiting action in the presence of GLP-1 receptor antagonist exendin(9-39),[2]; co-administration of exendin(9-39) 3 nM,abolished
same,Infarct size (IS) as percentage of area at risk (% IS/AAR),"[2]; peptide 0.3 nM for 15 min at onset of reperfusion, mean, control ischemia-reperfusion without peptide 24.8% / 28.4%",11.4%
same,Left ventricle developed pressure (LVDEV) AUC,[2],did not affect
same,Rate-pressure product (RPP) AUC,[2],did not affect
same,Left ventricle diastolic pressure (LVD) AUC over last 60 min of reperfusion / post-ischemic diastolic contracture,[2]; P<0.05,diminished diastolic hypercontracture; also recorded: significant decrease
same,Left ventricle diastolic pressure (LVD) AUC over last 60 min of reperfusion / post-ischemic diastolic contracture,"[2]; P<0.05, listed as N—Ac-GLP-1(7-34)-amide",diminished significantly
same,Left ventricle diastolic pressure (LVD) AUC over last 60 min of reperfusion / post-ischemic diastolic contracture,"[2]; P<0.05, listed as N—Ac-GLP-1-(7-34)amide",significantly decreased
same,Relative decrease in infarct size,[2]; postconditioning 0.3 nM versus control ischemia-reperfusion,approximately 54%
same,Left ventricle developed pressure (LVDEV) AUC,[2]; [3],no significant effect
same,Rate-pressure product (RPP) AUC,[2]; [3],no significant effect
same,Left ventricle developed pressure (LVDEV) AUC,[2]; [4],did not increase
same,Rate-pressure product (RPP) AUC,[2]; [4],did not increase
same,Effect on infarct size (in words),"[2]; postconditioning 0.3 nM versus no peptide, P<0.05",diminished infarct size; also recorded: significant decrease
exendin(9-39) [reference compound],Effect on infarct-limiting actions of GLP-1,in vitro rat heart; exendin(9-39) given with GLP-1,abolish
same,LVD AUC over last 60 min of reperfusion,[2]; exendin(9-39) 3 nM alone versus control ischemia,not affected
same,Infarct size (% IS/AAR),"[2]; exendin(9-39) 3 nM alone, mean",21.7%
